Measurements reported in patent US6399654B1, “Biflavanoids and derivatives thereof as antiviral agents” (priority 1995, dated 2002).
Converted amounts (≈) assume the structure as drawn. Where two headings read alike, the source gives them in different places.

Legend:
HFF Cells = experiment: Cytotoxicity (CC50) in HFF cells in the herpes virus tests; conditions: HFF Cells, HSV-2 test
[1] = as above; conditions: human
HIV-1 RT = molecular target: T1, HIV-1 RT (Human immunodeficiency virus type 1 group M subtype B, UniProt P03366); experiment: Anti-HIV-1 RT assay (recombinant enzyme); type: biochemical; conditions: for inhibition at 200 µg/mL: read-out: Anti-HIV-1 RT % Inhibition at 200 μg/ml; for Anti-HIV-1 RT IC50: values in parentheses or in words
T1 construct: made in house; host or cells: Escherichia coli

[2] = test system: Influenza A (H3N2) Beijing/32/92; experiment: microbe, parasite or virus in culture; type: cell-based, influenza A virus; conditions: Influenza A virus, MDCK; Influenza A (H3N2) Beijing/32/92; read-out: CPE Inhibition EC50
VZV = VZV plaque reduction assay in HFF cells; conditions: for VZV SI (CC50/EC50): HFF Cells; for EC50: Human alphaherpesvirus 3, HFF, read-out: VZV Plaque Reduction EC50
[3] = test system: Respiratory Syncytial Virus; experiment: microbe, parasite or virus in culture; type: cell-based; conditions: human respiratory syncytial virus, MA104; read-out: Neutral Red EC50
in vitro [4] = conditions: human
[5] = test system: Parainfluenza Type 3 Virus; experiment: organism not typed; type: cell-based; conditions: MA104, read-out: Neutral Red EC50
Hepatitis B Virus (HBV) = experiment: Inhibition of HBV replication in 2.2.15 cells, extracellular (virion) HBV DNA; conditions: for anti-HBV activity (in words): 2.2.15 cells; for EC50 / EC90: Hepatitis B virus; for SI (CC50/EC90), HBV Virion: selective index;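 for all read-outs here: extracellular virion HBV DNA in culture medium measured by slot blot hybridization with a 32P-labeled HBV probe, quantified against HBV DNA standards, after 9 days of daily dosing, compared with day 0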
Description: Test compounds were added daily for a nine continuous day period; the culture medium was collected and stored for analysis of extracellular (virion) HBV DNA after 0, 3, 6, and 9 days of treatment. The treated cells were lysed 24 hours following day 9 of treatment for the analysis of intracellular HBV genomic forms. The overall levels of HBV DNA (both extracellular and intracellular DNA) and the relative rate of HBV replication (intracellular DNA) were analyzed quantitatively. The analysis was performed using blot hybridization techniques and [^32P]-labeled HBV-specific probes. The HBV DNA levels were measured by comparison to known amounts of HBV DNA standards applied to every nitrocellulose membrane (gel or slot blot). An AMBIS beta scanner, which measures the radioactive decay of the hybridized probes directly from the nitrocellulose membranes, was used for the quantitative analysis. Standard curves, generated by multiple analyses, were used to correlate CPM measurements made by the beta scanner with relative levels of target HBV DNA. The levels of HBV virion DNA released into the culture medium were analyzed by a slot blot hybridization procedure. HBV DNA levels were then compared to those at day 0 to determine the effect of the test compound. A known positive drug was evaluated in parallel with test compounds in each test.
Determination of therapeutic concentrations (EC50 and EC90) and toxicity concentrations (IC50) were determined as previously described (90). Stock solutions of text drugs were prepared in DMSO. Culture medium was changed daily and analyzed for extracellular HBV DNA after nine days of continuous drug exposure. Extracellular HBV DNA was extracted from the culture media and analyzed by a slot blot hydridization technique, using a ^32P-labeled Eco RI HBV DNA fragment, as previously described (91), and quantitated via comparison to HBV standards on a nitrocellulose filter, using an AMBIS beta scanner. Toxicity was determined by measuring inhibition of neutral red dye uptake. […] Effective concentration values for individual agents are the mean of six cultures per concentration point. Toxicity values are the mean of three cultures per concentration point.

[6] = Cytotoxicity by neutral red dye uptake, BSC-1 cells; conditions: African green monkey
HSV-1 = HSV-1 CPE inhibition in HFF cells; conditions: for HSV-1 SI (CC50/EC50): HFF Cells; for EC50: Human alphaherpesvirus 1, HFF, read-out: HSV-1 CPE Inhibition EC50
Adenovirus Type 5 [7] = experiment: Adenovirus type 5 neutral red dye uptake in A549 cells; type: cell-based; conditions: Human mastadenovirus C, A549; Adenovirus Type 5; read-out: Neutral Red EC50
[8] = test system: Influenza A (H1N1) Texas/36/91; experiment: microbe, parasite or virus in culture; type: cell-based, influenza A virus; conditions: Influenza A virus, MDCK; Influenza A (H1N1) Texas/36/91; read-out: CPE Inhibition EC50
Measles Virus [9] = experiment: Measles virus neutral red dye uptake in BSC-1 cells; type: cell-based; conditions: Measles morbillivirus, BSC-1
[10] = test system: Parainfluenza Type 3 Virus; experiment: organism not typed; type: cell-based; conditions: MA104; Parainfluenza Type 3 Virus; read-out: CPI Inhibition EC50
in vitro [11] = conditions: dog
Measles Virus [12] = experiment: microbe, parasite or virus in culture; type: cell-based; conditions: for EC50: Measles morbillivirus, BSC-1, Measles Virus, read-out: CPI Inhibition EC50
in vitro [13] = conditions: dog, Neutral Red IC50 (cytotoxic)
[14] = Cytotoxicity by neutral red dye uptake, A549 cells; conditions: human
Influenza B Panama/45/90 [15] = experiment: microbe, parasite or virus in culture; type: cell-based; conditions: Influenza B virus, MDCK; Influenza B Panama/45/90; read-out: CPE Inhibition EC50
in vitro [16] = conditions: African green monkey
[17] = test system: Influenza A (H1N1) Texas/36/91; experiment: microbe, parasite or virus in culture; type: cell-based, influenza A virus; conditions: Influenza A virus, MDCK; Influenza A (H1N1) Texas/36/91; read-out: Neutral Red EC50
[18] = test system: Influenza A (H3N2) Beijing/32/92; experiment: microbe, parasite or virus in culture; type: cell-based, influenza A virus; conditions: Influenza A virus, MDCK; Influenza A (H3N2) Beijing/32/92; read-out: Neutral Red EC50
HSV-2 = HSV-2 CPE inhibition in HFF cells; conditions: for HSV-2 SI (CC50/EC50): HFF Cells; for EC50: Human alphaherpesvirus 2, HFF, read-out: HSV-2 CPE Inhibition EC50
in vitro [19] = conditions: African green monkey; remark: listed apart in the source
HCMV = HCMV CPE inhibition in HFF cells; conditions: for HCMV SI (CC50/EC50): HFF Cells; for EC50: Human betaherpesvirus 5, HFF, read-out: HCMV CPE Inhibition EC50
[20] = test system: Respiratory Syncytial Virus; experiment: microbe, parasite or virus in culture; type: cell-based; conditions: human respiratory syncytial virus, MA104; read-out: CPE Inhibition EC50
[21] = Cytotoxicity by neutral red dye uptake, MA-104 cells; conditions: African green monkey, Neutral Red IC50 (cytotoxic)
Adenovirus Type 5 [22] = experiment: microbe, parasite or virus in culture; type: cell-based; conditions: Human mastadenovirus C, A549, read-out: CPE Inhibition EC50
Influenza B Panama/45/90 [23] = experiment: microbe, parasite or virus in culture; type: cell-based; conditions: Influenza B virus, MDCK, read-out: Neutral Red EC50
2.2.15 cells = experiment: HBV cytotoxicity assay, neutral red dye uptake in 2.2.15 cells; type: cell-based; conditions: Homo sapiens, read-out: IC50 (toxicity, neutral red dye uptake)
Description: The toxicity of the test compounds in cultures of 2.2.15 cells, grown to confluence in 96-well flat-bottomed tissue culture plates and treated with compounds as described above, were assayed at four concentrations each in triplicate cultures, in 3 to 10-fold steps. Untreated control cultures were maintained on each plate. On each plate, wells containing no cells were used to correct for light scattering.
Stock solutions of text drugs were prepared in DMSO.

[24] = 216 h, read-out: EC50 (50% effective dose), HBV Virion, 2.2.15 cells, extracellular (virion) HBV DNA, 9 days treatment
[25] = 216 h, read-out: EC90 (90% effective dose), HBV Virion, 2.2.15 cells, extracellular (virion) HBV DNA, 9 days treatment
[26] = CPE Inhibition IC50 (50% cell inhibitory (cytotoxic) concentration), Influenza A (H1N1) test
[27] = CPE Inhibition IC50 (cytotoxic), Influenza A (H3N2) test
[28] = CPE Inhibition IC50 (cytotoxic), Influenza B test
[29] = CPE Inhibition IC50 (cytotoxic), Respiratory Syncytial Virus test
[30] = CPI Inhibition IC50 (cytotoxic), Parainfluenza Type 3 Virus test
[31] = Parainfluenza Type 3 Virus test
[32] = Respiratory Syncytial Virus test

Compound: O=C1CC(c2ccc(O)cc2)Oc2cc(O)c(-c3c(O)cc(O)c4c3OC(c3ccc(O)cc3)CC4=O)c(O)c21 (centres unmarked) [Rhusflavanone (9), rhusflavanone]
- HSV-2 CPE Inhibition CC50 (HFF Cells): >100 µg/mL
- CC50 at 3 days [1]: > 100 µg/mL
- CC50 at 10 days [1]: 16 µg/mL (≈ 29.5 µM)
- CC50 at 14 days [1]: 13.7 µg/mL (≈ 25.3 µM)
- activity against HIV-1 RT (in words) (HIV-1 RT): completely inactive
- inhibition at 200 µg/mL (HIV-1 RT): 14.1%
- Anti-HIV-1 RT IC50 (HIV-1 RT): Inactive
- EC50 [2]: > 32 µg/mL
- VZV SI (CC50/EC50) (VZV): <4
- EC50 (VZV): > 4 µg/mL
- EC50 [3]: 27 µg/mL (≈ 49.8 µM)
- IC50 (in vitro [4]): 47 µg/mL (≈ 86.6 µM)
- EC50 [5]: 85 µg/mL (≈ 157 µM)
- anti-HBV activity (in words) (Hepatitis B Virus (HBV); listed as rhusflavanone): inactive
- anti-HBV activity (in words) (Hepatitis B Virus (HBV); listed as rhusflavanone (9)): little or no anti-HBV activity
- EC50 (Hepatitis B Virus (HBV); [24]): > 100 µM
- EC90 (Hepatitis B Virus (HBV); [25]): > 100 µM
- IC50 [6]: 40 µg/mL (≈ 73.7 µM)
- HSV-1 SI (CC50/EC50) (HSV-1): 0
- EC50 (HSV-1): > 100 µg/mL
- EC50 (Adenovirus Type 5 [7]): 33 µg/mL (≈ 60.8 µM)
- EC50 [8]: > 10 µg/mL
- EC50 (Measles Virus [9]): 5 µg/mL (≈ 9.22 µM)
- EC50 [10]: > 100 µg/mL
- IC50 (in vitro [11]; [26]): 8.2 µg/mL (≈ 15.1 µM)
- IC50 (in vitro [11]; [27]): 24 µg/mL (≈ 44.2 µM)
- IC50 (in vitro [11]; [28]): 38 µg/mL (≈ 70 µM)
- activity against measles virus (in words) (Measles Virus [12]): some slight activity
- EC50 (Measles Virus [12]): 14 µg/mL (≈ 25.8 µM)
- IC50 (in vitro [13]; Influenza A (H1N1) test): 26 µg/mL (≈ 47.9 µM)
- IC50 (in vitro [13]; Influenza A (H3N2) test): 31 µg/mL (≈ 57.1 µM)
- IC50 [14]: 15 µg/mL (≈ 27.6 µM)
- EC50 (Influenza B Panama/45/90 [15]): 4.1 µg/mL (≈ 7.56 µM)
- IC50 (in vitro [16]): 21 µg/mL (≈ 38.7 µM)
- EC50 [17]: 24 µg/mL (≈ 44.2 µM)
- EC50 [18]: 31 µg/mL (≈ 57.1 µM)
- activity against HSV-2 (in words) (HSV-2): active
- HSV-2 SI (CC50/EC50) (HSV-2): >6.4
- EC50 (HSV-2): 15.7 µg/mL (≈ 28.9 µM)
- IC50 (in vitro [19]; [29]): 18 µg/mL (≈ 33.2 µM)
- IC50 (in vitro [19]; [30]): 47 µg/mL (≈ 86.6 µM)
- HCMV SI (CC50/EC50) (HCMV): <3.4
- EC50 (HCMV): > 4 µg/mL
- EC50 [20]: > 10 µg/mL
- IC50 [21, 31]: 30 µg/mL (≈ 55.3 µM)
- IC50 [21, 32]: 20 µg/mL (≈ 36.9 µM)
- EC50 (Adenovirus Type 5 [22]): 56 µg/mL (≈ 103 µM)

Compound: COc1ccc(-c2cc(=O)c3c(OC)cc(OC)c(C4C(=O)c5c(OC)cc(OC)cc5OC4c4ccc(OC)cc4)c3o2)cc1 (centres unmarked) [Volkensiflavone hexamethyl ether (6), volkensiflavone hexamethyl ether]
- HSV-2 CPE Inhibition CC50 (HFF Cells): >100 µg/mL
- CC50 at 3 days [1]: > 100 µg/mL
- CC50 at 10 days [1]: 11.1 µg/mL (≈ 17.8 µM)
- CC50 at 14 days [1]: > 100 µg/mL
- activity against HIV-1 RT (in words) (HIV-1 RT): inactive
- inhibition at 200 µg/mL (HIV-1 RT): 0%
- Anti-HIV-1 RT IC50 (HIV-1 RT): Inactive
- EC50 [2]: ~100 µg/mL (≈ 160 µM)
- VZV SI (CC50/EC50) (VZV): 3.4
- EC50 (VZV): 3.3 µg/mL (≈ 5.28 µM)
- EC50 [3]: > 32 µg/mL
- IC50 (in vitro [4]): 47 µg/mL (≈ 75.2 µM)
- EC50 [5]: > 32 µg/mL
- anti-HBV activity (in words) (Hepatitis B Virus (HBV)): moderate anti-HBV activity
- EC50 (Hepatitis B Virus (HBV); [24]): 11 µM
- EC90 (Hepatitis B Virus (HBV); [25]): 108 µM
- SI (CC50/EC90), HBV Virion (Hepatitis B Virus (HBV)): 1.3
- IC50 [6]: < 13 µg/mL
- HSV-1 SI (CC50/EC50) (HSV-1): 0
- EC50 (HSV-1): > 100 µg/mL
- EC50 (Adenovirus Type 5 [7]): > 100 µg/mL
- EC50 [8]: ~100 µg/mL (≈ 160 µM)
- EC50 (Measles Virus [9]): < 7 µg/mL
- EC50 (Influenza B Panama/45/90 [23]): < 20 µg/mL
- IC50 (in vitro [11]; [26]): < 24 µg/mL
- IC50 (in vitro [11]; [27]): ~100 µg/mL (≈ 160 µM)
- IC50 (in vitro [11]; [28]): ~100 µg/mL (≈ 160 µM)
- EC50 (Measles Virus [12]): < 70 µg/mL
- IC50 (in vitro [13]; Influenza A (H1N1) test): ~100 µg/mL (≈ 160 µM)
- IC50 (in vitro [13]; Influenza A (H3N2) test): ~100 µg/mL (≈ 160 µM)
- IC50 (in vitro [13]; Influenza B test): ~100 µg/mL (≈ 160 µM)
- IC50 [14]: 50 µg/mL (≈ 80 µM)
- EC50 (Influenza B Panama/45/90 [15]): 2.6 µg/mL (≈ 4.16 µM)
- IC50 (in vitro [16]): < 60 µg/mL
- EC50 [17]: ~100 µg/mL (≈ 160 µM)
- EC50 [18]: ~100 µg/mL (≈ 160 µM)
- HSV-2 SI (CC50/EC50) (HSV-2): 0
- EC50 (HSV-2): > 100 µg/mL
- IC50 (in vitro [19]; [29]): ~30 µg/mL (≈ 48 µM)
- IC50 (in vitro [19]; [30]): ~15 µg/mL (≈ 24 µM)
- HCMV SI (CC50/EC50) (HCMV): 0
- EC50 (HCMV): > 100 µg/mL
- EC50 [20]: ~18 µg/mL (≈ 28.8 µM)
- IC50 [21, 31]: ~33 µg/mL (≈ 52.8 µM)
- IC50 [21, 32]: ~59 µg/mL (≈ 94.5 µM)

Compound: Nc1ccn([C@@H]2CS[C@H](CO)O2)c(=O)n1 [Lamivudine (3TC), lamivudine, reference compound]
- EC50 (Hepatitis B Virus (HBV); [24]): 0.038 µM
- EC90 (Hepatitis B Virus (HBV); [25]): 0.16 µM
- EC50 (Hepatitis B Virus (HBV); read-out: EC50, concentration necessary to decrease HBV DNA levels by 50%, 2.2.15 cells, combinations: with respect to RF): 0.038 µM
- EC90 (Hepatitis B Virus (HBV); read-out: EC90, concentration necessary to decrease HBV DNA levels by 90%, 2.2.15 cells, combinations: with respect to RF): 0.16 µM
- SI (CC50/EC90), HBV Virion (Hepatitis B Virus (HBV)): 11200
- IC50 (2.2.15 cells): 1790 µM
